Test [1] deals with NLRP3 inflammasome (IL-1β production in THP-1 cells). Put plainly: IL-1β TR-FRET Assay (percentage of inhibition at 300 nM, 6 μM or 10 μM). It is filed as cell-based, human. The note with it: Homo sapiens, LPS priming, ATP activation; for inhibition at 0.3 µM: THP-1, 300 nM, read-out: IL-1β inhibitory rate at 300 nM (%); for inhibition at 10 µM: THP-1, 10 μM, read-out: IL-1β inhibitory rate at 10 μM (%); for inhibition at 6 µM: THP-1, 6 μM, read-out: IL-1β inhibitory rate at 6 μM (%). A digest of the protocol:
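Percent inhibition of IL-1β used DMSO wells as 0% and 3 μM MCC-950 wells as full inhibition, with supernatant read by HTRF. Beforehand, IFN-γ-differentiated (25 ng/mL, 24 h), LPS-primed (50 ng/mL, 24 h) THP-1 cells received compound 30 min before inflammasome activation by 20 mM ATP for 2 h.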

Test [2] deals with TNF-α (NF-κB pathway, THP-1 cells). Put plainly: TNF-α Assay (IC50). Format: cell-based, human. The note with it: Homo sapiens, 600 ng/mL LPS, 3 hours. The procedure, abridged:
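Supernatant TNF-α quantified by ELISA after 3 h stimulation with 600 ng/mL LPS at 37 °C, following 30 min compound preincubation. Cells: IFN-differentiated (25 ng/mL, 24 h) THP-1 macrophages, 40,000/well, serum-free. IC50 by sigmoidal fit of % inhibition, with TPCA-1 as 100% control.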

Molecules are shown by their SMILES. pIC50: −log10 of the molar value.

`CCOc1nc2nn(-c3c(C)cc(Br)cc3C)cc2c(=O)[nH]1` [Example 131, 2-(4-bromo-2,6-dimethylphenyl)-6-ethoxy-2,5-dihydro-4H-pyrazolo[3,4-d]pyrimidin-4-one]: the inhibition at 0.3 µM in test [1] was 100%. Also, in test [2], the pIC50 is under 4.52.
The corresponding values for `COCc1nc2nn(-c3c(C)ccc(C)c3O)cc2c(=O)[nH]1` [Example 53, 2-(2-hydroxy-3,6-dimethylphenyl)-6-(methoxymethyl)-2,5-dihydro-4H-pyrazolo[3,4-d]pyrimidin-4-one] are 95% and under 4.52.
The corresponding values for `Cc1cc(O)c(-n2cc3c(=O)[nH]c(-c4ccncn4)nc3n2)c(C)c1C` [Example 77, 2-(6-hydroxy-2,3,4-trimethylphenyl)-6-(pyrimidin-4-yl)-2,5-dihydro-4H-pyrazolo[3,4-d]pyrimidin-4-one] are 99% and under 4.52.
Regarding `Cc1cc(Cl)ccc1-n1cc2c(=O)[nH]c(C3CCCN(C)C3)nc2n1` (stereo not shown) [Example 102, 2-(4-chloro-2-methylphenyl)-6-(1-methylpiperidin-3-yl)-2,5-dihydro-4H-pyrazolo[3,4-d]pyrimidin-4-one], the inhibition at 10 µM in test [1] was 97%. For the same molecule, the pIC50 in test [2] is under 4.52.
As to `CO[C@H]1COCC[C@@H]1c1nc2nn(-c3c(C)cc(C4CC4)cc3C)cc2c(=O)[nH]1` (racemic) [Example 311, racemic mixture of 1,5-anhydro-3-[2-(4-cyclopropyl-2,6-dimethylphenyl)-4-oxo-4,5-dihydro-2H-pyrazolo[3,4-d]pyrimidin-6-yl]-2,3-dideoxy-4-O-methyl-L-threo-pentitol and 1,5-anhydro-3-[2-(4-cyclopropyl-2,6-dimethylphenyl)-4-oxo-4,5-dihydro-2H-pyrazolo[3,4-d]pyrimidin-6-yl]-2,3-dideoxy-4-O-methyl-D-threo-pentitol], the inhibition at 6 µM in test [1] stood at 102%. For the same molecule, in test [2], the pIC50 is under 4.52.
In the case of `CCOc1nc2nn(-c3ncc(Br)cc3C(F)(F)F)cc2c(=O)[nH]1` [Example 148, 2-[5-bromo-3-(trifluoromethyl)pyridin-2-yl]-6-ethoxy-2,5-dihydro-4H-pyrazolo[3,4-d]pyrimidin-4-one], in test [1], the inhibition at 0.3 µM stood at 96%. The molecule also gave a pIC50 in test [2] of under 4.52.
The corresponding values for `CCOc1nc2nn(-c3c(F)cc(C)cc3C3CC3(F)F)cc2c(=O)[nH]1` (stereo not shown) [Example 79, 2-[2-(2,2-difluorocyclopropyl)-6-fluoro-4-methylphenyl]-6-ethoxy-2,5-dihydro-4H-pyrazolo[3,4-d]pyrimidin-4-one] are 95% and under 4.52.
The corresponding values for `CCOc1nc2nn(-c3c(O)cc(C)cc3OC(F)F)cc2c(=O)[nH]1` [Example 116, 2-[2-(difluoromethoxy)-6-hydroxy-4-methylphenyl]-6-ethoxy-2,5-dihydro-4H-pyrazolo[3,4-d]pyrimidin-4-one] are 96% and under 4.52.
Take `COCCOc1nc2nn(-c3c(C)cc(C4(F)CC4)cc3C)cc2c(=O)[nH]1` [Example 246, 2-[4-(1-fluorocyclopropyl)-2,6-dimethylphenyl]-6-(2-methoxyethoxy)-2,5-dihydro-4H-pyrazolo[3,4-d]pyrimidin-4-one]: in test [1], the inhibition at 6 µM was 101%. In test [2], this molecule had a pIC50 of under 4.52.
As to `CCOc1nc2nn(-c3c(OCC)cc(C(F)(F)F)cc3C(F)F)cc2c(=O)[nH]1` [Example 95, 2-[2-(difluoromethyl)-6-ethoxy-4-(trifluoromethyl)phenyl]-6-ethoxy-2,5-dihydro-4H-pyrazolo[3,4-d]pyrimidin-4-one], the inhibition at 0.3 µM in test [1] turned out to be 72%. The molecule also showed a pIC50 in test [2] of under 4.52.
The corresponding values for `Cc1cc(C)c(-n2cc3c(=O)[nH]c(C(C)(C)C)nc3n2)c(O)c1` [Example 71, 6-tert-butyl-2-(2-hydroxy-4,6-dimethylphenyl)-2,5-dihydro-4H-pyrazolo[3,4-d]pyrimidin-4-one] are 96% and 5.77.
Consider `Cc1cc(C2CC2)cc(C)c1-n1cc2c(=O)[nH]c(CC#N)nc2n1` [Example 317, [2-(4-cyclopropyl-2,6-dimethylphenyl)-4-oxo-4,5-dihydro-2H-pyrazolo[3,4-d]pyrimidin-6-yl]acetonitrile], for which, in test [1], the inhibition at 6 µM stood at 100%. In test [2], this molecule gave a pIC50 of under 4.52.
For the molecule `CCOc1nc2nn(-c3c(F)cc(C4CC4)cc3F)c(C)c2c(=O)[nH]1` [Example 123, 2-(4-cyclopropyl-2,6-difluorophenyl)-6-ethoxy-3-methyl-2,5-dihydro-4H-pyrazolo[3,4-d]pyrimidin-4-one], in test [1], the inhibition at 0.3 µM amounted to 95%. This molecule also showed a pIC50 in test [2] of under 4.52.
The corresponding values for `CCOc1nc2nn(-c3c(F)cc(C4CC4)cc3C(F)(F)F)cc2c(=O)[nH]1` [Example 117, 2-[4-cyclopropyl-2-fluoro-6-(trifluoromethyl)phenyl]-6-ethoxy-2,5-dihydro-4H-pyrazolo[3,4-d]pyrimidin-4-one] are 100% and under 4.52.
The corresponding values for `CCOc1nc2nn(-c3c(C)cc(C(F)(F)F)cc3F)cc2c(=O)[nH]1` [Example 64, 6-ethoxy-2-[2-fluoro-6-methyl-4-(trifluoromethyl)phenyl]-2,5-dihydro-4H-pyrazolo[3,4-d]pyrimidin-4-one] are 100% and under 4.52.
The corresponding values for `CCOc1cc(C)c(-n2cc3c(=O)[nH]c(OCC)nc3n2)c(F)c1` [Example 160, 6-ethoxy-2-(4-ethoxy-2-fluoro-6-methylphenyl)-2,5-dihydro-4H-pyrazolo[3,4-d]pyrimidin-4-one] are 84% and under 4.52.
For the molecule `Cc1ccc(-n2cc3c(=O)[nH]c(Oc4ccccc4)nc3n2)c(C)c1` [Example 100, 2-(2,4-dimethylphenyl)-6-phenoxy-2,5-dihydro-4H-pyrazolo[3,4-d]pyrimidin-4-one], the inhibition at 10 µM in test [1] is 100%. Also, the pIC50 in test [2] was under 4.52.
Turning to `Cc1cc(C)c(-n2cc3c(=O)[nH]c(-c4ccccn4)nc3n2)c(O)c1` [Example 9, 2-(2-hydroxy-4,6-dimethylphenyl)-6-(pyridin-2-yl)-2,5-dihydro-4H-pyrazolo[3,4-d]pyrimidin-4-one], the inhibition at 0.3 µM in test [1] came out at 100%. The pIC50 in test [2] was under 4.52.
The corresponding values for `Cc1cc(C)c(-n2cc3c(=O)[nH]c(-c4cccnn4)nc3n2)c(O)c1` [Example 30, 2-(2-hydroxy-4,6-dimethylphenyl)-6-(pyridazin-3-yl)-2,5-dihydro-4H-pyrazolo[3,4-d]pyrimidin-4-one] are 100% and under 4.52.
The corresponding values for `Cc1cc(C2CC2)cc(C)c1-n1cc2c(=O)[nH]c(C3CCOCC3)nc2n1` [Example 198, 2-(4-cyclopropyl-2,6-dimethylphenyl)-6-(oxan-4-yl)-2,5-dihydro-4H-pyrazolo[3,4-d]pyrimidin-4-one] are 95% and under 4.52.
The corresponding values for `CCCOc1nc2nn(-c3c(C)cc(C)cc3O)cc2c(=O)[nH]1` [Example 4, 2-(2-hydroxy-4,6-dimethylphenyl)-6-propoxy-2,5-dihydro-4H-pyrazolo[3,4-d]pyrimidin-4-one] are 92% and under 4.52.
On to `CO[C@@H]1COCC[C@@H]1c1nc2nn(-c3c(C)cc(C4CC4)cc3C)cc2c(=O)[nH]1` (racemic) [Example 310, racemic mixture of 1,5-anhydro-3-[2-(4-cyclopropyl-2,6-dimethylphenyl)-4-oxo-4,5-dihydro-2H-pyrazolo[3,4-d]pyrimidin-6-yl]-2,3-dideoxy-4-O-methyl-D-erythro-pentitol and 1,5-anhydro-3-[2-(4-cyclopropyl-2,6-dimethylphenyl)-4-oxo-4,5-dihydro-2H-pyrazolo[3,4-d]pyrimidin-6-yl]-3,4-dideoxy-2-O-methyl-D-erythro-pentitol], for which the inhibition at 6 µM in test [1] amounted to 99%. This molecule also gave a pIC50 in test [2] of under 4.52.
The corresponding values for `Cc1cc(C2CC2)cc(C)c1-n1cc2c(=O)[nH]c([C@@]3(F)CCCOC3)nc2n1` [Example 260, 2-(4-cyclopropyl-2,6-dimethylphenyl)-6-(3-fluorooxan-3-yl)-2,5-dihydro-4H-pyrazolo[3,4-d]pyrimidin-4-one] are 96% and under 4.52.
On to `CCOc1nc2nn(-c3c(C)cc(C)cc3Br)cc2c(=O)[nH]1` [Example 118, 2-(2-bromo-4,6-dimethylphenyl)-6-ethoxy-2,5-dihydro-4H-pyrazolo[3,4-d]pyrimidin-4-one], for which the inhibition at 0.3 µM in test [1] was found to be 101%. The molecule also gave a pIC50 in test [2] of under 4.52.
Consider `CCOc1nc2nn(-c3c(C)cc(C4CC4)cc3C#N)cc2c(=O)[nH]1` [Example 179, 5-cyclo propyl-2-(6-ethoxy-4-oxo-4,5-dihydro-2H-pyrazolo[3,4-d]pyrimidin-2-yl)-3-methylbenzonitrile], for which the inhibition at 0.3 µM in test [1] was found to be 102%. Also, in test [2], the pIC50 was under 4.52.
The corresponding values for `CCOc1nc2nn(-c3c(C)cc(C4CC4)cc3COC)cc2c(=O)[nH]1` [Example 164, 2-[4-cyclopropyl-2-(methoxymethyl)-6-methylphenyl]-6-ethoxy-2,5-dihydro-4H-pyrazolo[3,4-d]pyrimidin-4-one] are 95% and under 4.52.

Values taken from US20260297092A1, “PYRAZOLOPYRIMIDINE DERIVATIVES AS INHIBITORS OF NLRP3” (Takeda Pharmaceutical Company Limited, priority 2023, published 2026).
